Tests used:
mouse hair follicles = conditions: cited from earlier work
human hair follicles [1] = conditions: cited from earlier work
human hair follicles [2] = assay: Hair follicle organ (explant) culture, growth over seven days; type: cell-based
Source text: Tissue: Scalp was obtained from normally discarded human skin samples from CHTN and from men and women undergoing hair transplantation (IRB exempted study Protocol #818053). Hair follicle organ culture: Hair follicles were microdissected from discarded tissues from hair transplant patients and cultured for seven days as described by Philpott et al. (J. Dermatol. Sci. Suppl: S55-72. (1994)) in the presence or absence of PGD2 and/or DP-2 antagonist, with a change of culture medium every two days. Hair follicles were photographed at the beginning and end of the culture period. Hair follicle growth was measured from the photographs using Image J software.

C57BL mice = assay: Topical application to depilated back skin of mice, hair cycle stage and hair length; type: in vivo, mouse
Procedure: Animal studies: The back skins of C57BL mice at 6-7 week were depilated. DP-2 antagonists were dissolved in 95% EtOH/2% Glycerol/3% PEG. 100 μL of each compound was spread on the shaved back skin once daily for 2 weeks starting from day 8 post depilation. At day 22 post depilation hair shafts were plucked for hair length measurement and skins were harvested for histological assessment of hair cycle stages.

[3] = tested on: hair follicle keratinocytes; assay: Immunofluorescence staining of cultured hair follicles for Ki67 and active caspase 3; type: cell-based, human
Procedure: Immunostaining: Immunofluorescence analysis with anti-Ki67 and anti-Caspase-3 was performed on cryosections of cultured hair follicles or whole mount hair follicles fixed in 4% PFA. Images were photographed with Leica fluorescence microscope.

[4] = topical once per day for two weeks, day 22 post depilation

| SMILES | hair growth (mouse hair follicles) | hair growth (human hair follicles [1]) | anti-PGD2 activity at high doses (human hair follicles [2]; 99.5% pure preparation of AM211, FIG. 3B) | rescue of hair follicles from growth inhibition by PGD2 (human hair follicles [2]; AM211 at 10 nM, PGD2 10 μM, 7 days) | anti-PGD2 effect at high doses (human hair follicles [2]; AM211 preparation purified to 95% homogeneity, FIG. 3A) | hair follicles entering catagen (hair cycle stage) (C57BL mice; topical once per day for two weeks from day 8 post depilation, harvested day 22) | hair shaft length (C57BL mice; [4]) | skin area with hair follicles continuing to grow (C57BL mice; [4]) | patients whose hair follicles exhibited PGD2-mediated growth inhibition (human hair follicles [2]; Group 1, of 35 patients tested) | patients whose hair follicles exhibited PGD2-mediated growth inhibition (human hair follicles [2]; Group 2, of 65 patients tested) | patients whose hair follicles exhibited PGD2-mediated growth inhibition (human hair follicles [2]; Groups 1 and 2 combined, 100 samples) | growth of human hair follicles in explant culture (human hair follicles [2]; PGD2 10 μM added to culture medium, 7 days) | inhibitory effect on hair growth, dose dependence (human hair follicles [2]; explant culture, FIG. 1B) | apoptosis of hair follicle keratinocytes (active caspase 3) [3] | proliferation of hair follicle keratinocytes (Ki67) [3] |
| --- | --- | --- | --- | --- | --- | --- | --- | --- | --- | --- | --- | --- | --- | --- | --- |
| CCCCC/C=C/C=C1/C(=O)C=C[C@@H]1C/C=C\CCCC(=O)O [15-dPGJ2, 15-deoxy-D12,14-prostaglandin J2] | inhibit hair growth | inhibit hair growth | – | – | – | – | – | – | – | – | – | – | – | – | – |
| CCN(Cc1cc(C(F)(F)F)ccc1-c1cc(CC(=O)O)ccc1OC)C(=O)NCc1ccccc1 [AM211] | – | – | sustained anti-PGD2 activity | rescued hair follicles from the inhibition by PGD2 | reduction in anti-PGD2 effect | dose-dependent delay in hair follicles entering catagen | longer hair shaft | larger area with hair follicles continuing to grow | – | – | – | – | – | – | – |
| CCCCC[C@H](O)/C=C/[C@H]1C(=O)C[C@H](O)[C@@H]1C/C=C\CCCC(=O)O [PGD2, prostaglandin D2] | inhibit hair growth | inhibit hair growth | – | – | – | – | – | – | 21 | 31 | 52 | severely inhibited | dose-dependent manner | promoted apoptosis | suppressed proliferation |

Source: patent publication US12201625B2, “Single nucleotide polymorphic alleles of human DP-2 gene for detection of susceptibility to hair growth inhibition by PGD2” (THE TRUSTEES OF THE UNIVERSITY OF PENNSYLVANIA, priority 2015, dated 2025)
